Source: patent US20250354979A1, “DRUG EVALUATION METHOD, REAGENT, AND KIT” (FUJIFILM Corporation, priority 2023, published 2025)

Assays:
[1] = test system: human iPS cell-derived myocardial cells; experiment: Heart rate of myocardial cells by MEA, serum-free culture medium with isoproterenol and carbachol added; assay type: cell-based; details: serum-free culture medium with 1 μmol/L isoproterenol and 3 μmol/L carbachol; cumulative drug concentrations, 20 minutes after addition; vs medium control
Experimental: (§1) Example 4: Method and results of evaluating increase in heart rate by muscarinic receptor inhibitor (atropine) using serum-free culture medium to which adrenergic receptor agonist (isoproterenol) and muscarinic receptor agonist (carbachol) are added Human iPS cell-derived myocardial cells (iCell myocardial cells 2.0, manufactured by FUJIFILM Cellular Dynamics, Inc.) in a frozen state were thawed, suspended in a thawing culture medium (iCell myocardial cell thawing culture medium, manufactured by FUJIFILM Cellular Dynamics, Inc.), and then seeded at a cell density of 50,000 cells per well on a MEA plate (Cyto View MEA 48, manufactured by Axion BioSystems, Inc.). The seeding density of myocardial cells in the vicinity of the electrode was 2,725 cells/mm^2. After the plate was allowed to stand in a CO2 incubator for several hours, a maintenance culture medium (iCell myocardial cell maintenance culture medium, manufactured by FUJIFILM Cellular Dynamics, Inc.) containing serum was added, and the myocardial cells were cultured in the CO2 incubator for about one week. The culture medium was exchanged with a serum-free culture medium (a myocardial cell serum-free assay culture medium, manufactured by FUJIFILM Cellular Dynamics, Inc.) on the day before the measurement.
(§2) On the day of measurement, the MEA plate on which human iPS cell-derived myocardial cells were cultured was placed in an MEA system (Maestro Pro, manufactured by Axion BioSystems, Inc.), 1 μmol/L of isoproterenol (manufactured by Tokyo Chemical Industry Co., Ltd.) and 3 μmol/L of carbachol (manufactured by Tokyo Chemical Industry Co., Ltd.) were added to the culture medium, and then the extracellular potential was measured after 20 minutes from the addition (medium control, atropine concentration: 0 μmol/L). Subsequently, 0.01 μmol/L of atropine (manufactured by Tokyo Chemical Industry Co., Ltd.) was added to the MEA plate, and then the extracellular potential was measured after 20 minutes from the addition. Similarly, atropine was added to give concentrations of 0.1 μmol/L and 1 μmol/L, and then the extracellular potential was measured at each concentration.
From the measurement results of the extracellular potential, the interval between sharp peaks indicating depolarization of human iPS cell-derived myocardial cells was taken as the beating time (sec), and the heart rate (/min)=60/beating time (sec) was calculated. The addition of atropine was confirmed to result in an increase in heart rate of up to 51% (FIG. 7).
In the same manner as in Example 4, evaluation was carried out using an MEA plate on which human iPS cell-derived myocardial cells were cultured. Specifically, the same operations as in Example 4 were carried out except that atropine added in Example 4 was changed to tiotropium (manufactured by Tokyo Chemical Industry Co., Ltd.) and the concentration of tiotropium added was 1 pmol/L, 10 pmol/L, 100 pmol/L, and 1,000 pmol/L.
In the same manner as in Example 4, evaluation was carried out using an MEA plate on which human iPS cell-derived myocardial cells were cultured. Specifically, the same operations as in Example 4 were carried out except that atropine added in Example 4 was changed to glycopyrronium (manufactured by Tokyo Chemical Industry Co., Ltd.) and the concentration of glycopyrronium added was 0.01 nmol/L, 0.1 nmol/L, 1 nmol/L, and 10 nmol/L.
In the same manner as in Example 4, evaluation was carried out using an MEA plate on which human iPS cell-derived myocardial cells were cultured. Specifically, the same operations as in Example 4 were carried out except that the atropine added in Example 4 was changed to propranolol (manufactured by FUJIFILM Wako Pure Chemical Corporation) and the concentration of propranolol added was 0.1 nmol/L, 1 nmol/L, 10 nmol/L, and 100 nmol/L.
In the same manner as in Example 4, evaluation was carried out using an MEA plate on which human iPS cell-derived myocardial cells were cultured. […]

[2] = test system: human iPS cell-derived myocardial cells; experiment: Heart rate of myocardial cells by MEA, serum-free culture medium with isoproterenol added; assay type: cell-based; details: serum-free culture medium with 1 μmol/L isoproterenol; cumulative drug concentrations, 20 minutes after addition; vs medium control
Experimental: as §1, with “1:” for “4:”, “decrease” for “increase”, “agonist (carbachol)” for “inhibitor (atropine)”, “is” for “and muscarinic receptor agonist (carbachol) are”, “2,671” for “2,725”, “The culture medium was exchanged with a serum-free culture medium (a myocardial cell serum-free assay culture medium, manufactured by FUJIFILM Cellular Dynamics, Inc.) on the day before the measurement.” left out
as §2, with “Ltd.) was” for “Ltd.) and 3 μmol/L of carbachol (manufactured by Tokyo Chemical Industry Co., Ltd.) were”, “control, carbachol” for “control, atropine”, “of carbachol” for “of atropine”, “Similarly, carbachol” for “Similarly, atropine”, “0.1 μmol/L, 1 μmol/L,” for “0.1 μmol/L”, “and 10” for “and 1”
From the measurement results of the extracellular potential, the interval between sharp peaks indicating depolarization of human iPS cell-derived myocardial cells was taken as the beating time (sec), and the heart rate (/min)=60/ beating time (sec) was calculated. […]

CC(=O)Oc1ccccc1C(=O)O [aspirin]
increase in heart rate [1]: at most 17%

CC(C)NCC(O)COc1ccc(CC(N)=O)cc1 (stereo not shown) [atenolol]
decrease in heart rate [1]: up to 22%

CC1OC2(CS1)CN1CCC2CC1 (stereo not shown) [cevimeline]
decrease in heart rate [2]: up to 26%

C[N+]1(C)CCC(OC(=O)C(O)(c2ccccc2)C2CCCC2)C1 (stereo not shown) [glycopyrronium]
increase in heart rate [1]: up to 36%

CC[C@@H]1C(=O)OC[C@@H]1Cc1cncn1C [pilocarpine]
decrease in heart rate [2]: up to 15%

CC(C)NCC(O)COc1cccc2ccccc12 (stereo not shown) [propranolol]
decrease in heart rate [1]: up to 28%

C[N+]1(C)[C@@H]2C[C@@H](OC(=O)C(O)(c3cccs3)c3cccs3)C[C@H]1[C@@H]1O[C@@H]12 [tiotropium]
increase in heart rate [1]: up to 36%
